According to patent US6673937B2, “Syntheses and methods of use of new antimitotic agents” (The University of Pittsburgh, priority 2000, dated 2004):

Assays:
VHR = VHR (Homo sapiens, UniProt P51452); experiment: In vitro inhibition of VHR; assay type: biochemical; conditions: 30 μM, data not shown
tsFT210 cells = experiment: Flow cytometry, G1 transition in tsFT210 cells; assay type: cell-based, mouse; conditions: 5 or 10 μM, additional 6 hours
bovine tubulin = experiment: Tubulin hypernucleation without GTP; assay type: biochemical; conditions: in vitro
Description: The inventors examined the ability of SR-7 to alter tubulin polymerization or depolymerization in vitro. FIG. 28, Panel A. Compounds (predissolved in DMSO) were preincubated with tubulin containing monosodium glutamate at 30 ° C. for 15 min. Samples were cooled to 0 ° C. and GTP was added. Samples were placed in a temperature-controlled multi-cuvette holder of a spectrophotometer held at 0 ° C. Baselines were established and temperature was rapidly raised to 30 ° C. Turbidity development in the cuvettes was measured at 350 nm. FIG. 28, Panel B. Compounds were added to the tubulin plus monosodium glutamate mixture at 0 ° C., placed in the spectrophotometer and temperature was raised to 30 ° C. Addition of 0.4 mM GTP to isolated bovine brain tubulin produced robust polymerization that began to plateau approximately 20 min after microtubule assembly commenced (Panel A).

[1] = tested on: 1 A9, 1 A9/PTX10 and 1 A9/PTX22 cells; experiment: Growth inhibition of paclitaxel-sensitive and -resistant 1A9 cells; assay type: cell-based, human
Description: Two compounds, 24 referred to herein as SR-4 and 27 referred to herein as SR-7, were examined in greater detail as to their effects on biological activity. The proliferation of MCF-7, MDA-MB-231 and SV40 transformed mouse embryonic fibroblasts was measured by a previously described colorimetric assay (Wipf P, Jung J-K, Rodriguez S, Lazo JS Synthesis and biological evaluation of Deoxypreussomerin A and Palmarumycin CP 1 and related naphthoquinone spiroketals. Tetrahedron 57:283-296, 2001 and Vogt A, Rice RL, Settineri CE, Yokokawa F, Yokokawa S, Wipf P and Lazo JS (1998) Disruption of insulin-like growth factor-I signaling and down-regulation of Cdc2 by SC-ααδ9, a novel small molecule antisignaling agent identified in a targeted array library. J Pharmacol Exptl Therap 287:806-813.). Briefly, the inventors seeded 4,000-6,000 cells per well in microtiter plates. […] Plates were incubated for 3 hours in the dark and total cell number was determined by spectrophotometrically at 540 nm as previously described (Vogt A, Rice RL, Settineri CE, Yokokawa F, Yokokawa S, Wipf P and Lazo JS (1998) Disruption of insulin-like growth factor-1 signaling and down-regulation of Cdc2 by SC-ααδ9, a novel small molecule antisignaling agent identified in a targeted array library. J Pharmacol Exptl Therap 287:806-813.). […]

Cdk1 = experiment: Western blotting for Cdk1 phosphorylation status in tsFT210 cells; assay type: cell-based, mouse; conditions: 10 or 20 μM, 6 hours
Description: tsFT210 cells were harvested using the same procedure for cell synchronizing and drug exposure as described above for the G2/M flow cytometric analysis. The protein lysates were analyzed by Western blotting for Cdk1 as described previously (Tamura K, Southwick EC, Kerns J, Rosi K, Carr BI, Wilcox C and Lazo JS (2000) Cdc25 inhibition and cell cycle arrest by a synthetic thioalkyl vitamin K analogue. Cancer Res 60:1317-1325.). The inventors used Cdk1 isolated from human MCF-7 cells to assay for in vitro inhibition of enzyme activity because of available antibodies and convenience. Asynchronous cells grown at 37° C. in 5% CO2 in DMEM containing 10% fetal bovine serum were treated with lysis buffer and harvested as previously described (Vogt A, Wang AS, Johnson CS, Fabisiak JP, Wipf P and Lazo JS (2000) In vivo antitumor activity and induction of insulin-like growth factor-1 resistant apoptosis by SC-ααδ9. J Pharmacol Exptl Therap 292:530-537.). Cdk1 kinase activity assay was performed as previously described (Yu L, Orlandi L, Wang P, Orr MS, Senderowicz AM, Sausville EA, Silvestrini R, Watanabe N, Piwnica-Worms H, O° Connor PM (1998) UCN-01 arogates G2 arrest through a Cdc2-dependent pathway that is associated with inactivation of the WeelHu kinase and activation of the Cdc25C phosphatase. J Biol Chem 273: 33455-33464.). […] Histone H1 was separated from other proteins by SDS-PAGE and analyzed for incorporation of radioactive phosphate with a Molecular Dynamics STORM 860 Phospholmager (Sunnyvale, CA).
The major controlling molecule for G2/M transition is the cyclin dependent kinase, Cdk1, whose cellular activity is tightly regulated by phosphorylation (Pines J (1999) Four-dimensional control of the cell cycle. Nature Cell Biol 1:E73-79., Hunter T and Pines J (1994) Cyclins and cancer II: cyclin D and CDK inhibitors come of age. Cell 79:573-582). […] The protein lysates were analyzed by Western blotting for Cdk1 content and phosphorylation status as described elsewhere herein. […]

Sequence of VHR (P51452 whole entry, species assumed): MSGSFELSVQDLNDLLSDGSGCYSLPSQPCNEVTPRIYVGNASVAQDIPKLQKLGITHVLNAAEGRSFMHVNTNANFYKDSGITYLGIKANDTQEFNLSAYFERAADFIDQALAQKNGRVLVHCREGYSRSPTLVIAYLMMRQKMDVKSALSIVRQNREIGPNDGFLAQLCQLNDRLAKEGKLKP

O=C1C=CC2(Oc3cccc4cccc(c34)O2)c2cccc(OCc3ccco3)c21 [SR-7, 8-(furan-2-ylmethoxy)-1-oxo-1,4-dihydronaphthalene-4-spiro-2′-naphto [1″,8″-de][1′,3′] dioxin]
inhibition of VHR activity (VHR): no inhibition | G1 transition (tsFT210 cells): not delayed at G1 | hypernucleation of tubulin (bovine tubulin): failed in vitro to hypernucleate bovine tubulin | inhibition of paclitaxel-sensitive and -resistant cell growth [1]: almost equal inhibition | Cdk1 phosphorylation status (Cdk1): Cdk1 was completely dephosphorylated
